According to paper PMC8536644, “Enigmatic mechanism of the N-vinylpyrrolidone hepatocarcinogenicity in the rat” (Archives of Toxicology, 2021):
Several values for one entry are separate records, joined by “and”; a condition that tells them apart may be missing. Equal entries are not always repeated. Where two headings read alike, the source gives them in different places. Marks after values point to notes of the source that are not given here.

Assays:
Drosophila melanogaster = settings: ref Knaap et al. [1985]; cited from earlier work
CYP2B = experiment: PROD assay, liver microsomes (CAR marker); format: in vivo, rat; settings: male rats
Procedure: (§1) The alkoxyresorufin dealkylase (AROD) assays were based on the method by Burke et al. ([1994]).
(§2) The frozen livers and lungs of the NVP-treated male Wistar rats were thawed and washed with isotonic (0.9%) NaCl solution. The tissues were ice-cooled homogenized (1 g tissue: 3 mL 0.25 M saccharose in 1 mM disodium EDTA, pH 7.4) and centrifuged (9000 g, 15 min, 4 °C). The supernatant fraction was centrifuged (100 000 g, 60 min, 4 °C). The resulting supernatant fraction was used for the palmitoyl-CoA-oxidase assay described further down. The pellet was taken up in 150 mM aqueous KCl solution, recentrifuged (100 000 g, 60 min, 4 °C) and the pellet taken up in 1 mL/g liver or 0.5 mL/g lung resuspension buffer (1 mM GSH, 1 mM disodium EDTA, 4 mM MgCl2, 0.1 M KH2PO4, pH 7.5 and 4% glycerol). Aliquots were stored at − 80 °C.
(§3) For determination of the enzyme activities in triplicates, 85 µL master mix (100 mM TrisHCl pH 7.5, 2 mM 5’AMP, 5 mM G-6-P, 10 U G-6-P-DH, 10 mM Dicumarol, 10 mM MgCl2, either 2 µM EROD or 10 µM PROD or 5 µM BROD) was added to 10 µL microsomal fraction (1 mg protein/mL). The reaction was started by the addition of 5 µL 2 mM NADPH (dissolved in 100 mM TrisHCl pH 7.5) followed by incubation at 37 °C for 16 min. The activity was determined by measuring the increase of the fluorescence (excitation at 550 nm, emission at 585 nm) due to resorufin formation compared with resorufin standards, which had been prepared by dissolving tenfold concentrated solutions in DMSO, which were then diluted tenfold in 100 mM TrisHCl pH 7.5.

mice = tested on: mice; parameters: method as in BASF [1993]; settings: oral application, ref BASF [1993]; cited from earlier work
[1] = tested on: L5178Y mouse lymphoma cells; parameters: method as in MAK [1994]; settings: ref MAK [1994]; cited from earlier work
Sprague–Dawley rats = settings: cited from earlier work; for Larynx squamous carcinoma, incidence / Liver hepatocellular carcinoma, incidence / Nasal cavity adenocarcinoma, incidence / Nasal cavity adenoma, incidence: 24 months inhalation, 60 animals, ref Klimisch et al. (1997a)
rat liver [2] = experiment: Liver histology, hematoxylin–eosin staining; format: in vivo
Procedure: HE staining was performed essentially according to Romeis ([2010]), specifically under the following conditions:
Parts of the frozen (− 80 °C) livers from rats treated with 0, 5, 10 or 20 ppm NVP were thawed in formalin (specifically 4% formaldehyde in sodium phosphate buffer pH 7) and left therein for fixation at least 7 days. Subsequently the livers were cut into approximately 4 mm-thick slices, which were dehydrated in increasingly concentrated ethanol (70–100%), washed in xylene and then transferred into fluid paraffin. The livers were put into kassettes with the parts which were foreseen for cutting toward the bottom, the kassettes filled with paraplast (melting point 58–62 °C) and the material left for hardening. From the embedded livers 3- to 6 µm-thick slices were cut by a rotation microtome, then stretched (in a water bath at 45 °C), transferred to a slide and dried overnight at 50 °C. Subsequently the slices were stained with HE and covered with Pertex. The slices were then microscopically evaluated. Structural changes were classified into severity grades 0, 1, 2 and 3.

CYP 2B/3A = experiment: BROD assay, lung microsomes; format: in vivo, rat; settings: male rats
Procedure: as §1, §2, §3

rat hepatocytes = tested on: rat hepatocytes; parameters: method as in MAK [1994]; settings: ref MAK [1994]; cited from earlier work
rat liver [3] = experiment: Non-protein-bound sulfhydryl groups (NPSH) in liver homogenate supernatant; format: in vivo; settings: for NPSH, individual animal / NPSH, group (mean ± SD): rat liver; for NPSH, group (mean ± SD): n = 6
Procedure: Determination of NPSH was performed according to the principle described by Ellmann (1958, 1959) in the liver homogenate supernatant fraction of the NVP-exposed male Wistar rats. […] The supernatant fraction was stored in aliqots at − 80 °C. Prior to assay, the samples were diluted fourfold and to 100 µL of the diluted sample 200 µL Tris/EDTA (1 M/5 mM, pH 8.9) buffer was added. Determinations were performed in triplicates. […] Measurements were performed 5 min thereafter at λ = 412 nm.

[4] = tested on: human lymphocyte cultures; parameters: method as in MAK [1994]; settings: ref MAK [1994]; cited from earlier work

SMILES: C=CN1CCCC1=O [NVP, N-vinylpyrrolidone]
- Sex-linked recessive lethal test result (Drosophila melanogaster): negative
- Liver microsomal PROD activity (CYP2B; 5 ppm): 12.4 ± 1.9 pmol/min/mg protein
- Liver microsomal PROD activity (CYP2B; 10 ppm): 16.5 ± 4.3 pmol/min/mg protein
- Liver microsomal PROD activity (CYP2B; 20 ppm): 10.0 ± 2.8 pmol/min/mg protein
- Micronucleus test result (mice): negative
- Mammalian cell mutation tests (HGPRT and TK locus) result [1]: negative
- Larynx squamous carcinoma, incidence (Sprague–Dawley rats; female, 5 ppm): 0
- Liver hepatocellular carcinoma, incidence (Sprague–Dawley rats; female, 5 ppm): 3
- Nasal cavity adenocarcinoma, incidence (Sprague–Dawley rats; female, 5 ppm): 0
- Nasal cavity adenoma, incidence (Sprague–Dawley rats; female, 5 ppm): 2
- Larynx squamous carcinoma, incidence (Sprague–Dawley rats; female, 10 ppm): 0
- Liver hepatocellular carcinoma, incidence (Sprague–Dawley rats; female, 10 ppm): 6*
- Nasal cavity adenocarcinoma, incidence (Sprague–Dawley rats; female, 10 ppm): 0
- Nasal cavity adenoma, incidence (Sprague–Dawley rats; female, 10 ppm): 8**
- Larynx squamous carcinoma, incidence (Sprague–Dawley rats; female, 20 ppm): 4
- Liver hepatocellular carcinoma, incidence (Sprague–Dawley rats; female, 20 ppm): 26***
- Nasal cavity adenocarcinoma, incidence (Sprague–Dawley rats; female, 20 ppm): 4*
- Nasal cavity adenoma, incidence (Sprague–Dawley rats; female, 20 ppm): 14***
- Larynx squamous carcinoma, incidence (Sprague–Dawley rats; male, 5 ppm): 0
- Liver hepatocellular carcinoma, incidence (Sprague–Dawley rats; male, 5 ppm): 6*
- Nasal cavity adenocarcinoma, incidence (Sprague–Dawley rats; male, 5 ppm): 0
- Nasal cavity adenoma, incidence (Sprague–Dawley rats; male, 5 ppm): 9**
- Larynx squamous carcinoma, incidence (Sprague–Dawley rats; male, 10 ppm): 0
- Liver hepatocellular carcinoma, incidence (Sprague–Dawley rats; male, 10 ppm): 5*
- Nasal cavity adenocarcinoma, incidence (Sprague–Dawley rats; male, 10 ppm): 4*
- Nasal cavity adenoma, incidence (Sprague–Dawley rats; male, 10 ppm): 9***
- Larynx squamous carcinoma, incidence (Sprague–Dawley rats; male, 20 ppm): 4
- Liver hepatocellular carcinoma, incidence (Sprague–Dawley rats; male, 20 ppm): 17***
- Nasal cavity adenocarcinoma, incidence (Sprague–Dawley rats; male, 20 ppm): 6*
- Nasal cavity adenoma, incidence (Sprague–Dawley rats; male, 20 ppm): 11***
- Lowest tested dose at which hepatocellular carcinomas were observed (Sprague–Dawley rats; rat, inhalation, ref Klimisch et al. [1997a]): 5 ppm
- Males without centrilobular hepatocellular fatty change (rat liver [2]; 5 ppm, three males examined): two of three
- Animals with low-grade (grade 1) centrilobular hepatocellular fatty change (rat liver [2]; 10 ppm, males): two of three
- Animals with grade 1 centrilobular hepatocellular fatty change (rat liver [2]; 20 ppm, females): one of three
- Animals with grade 2 centrilobular hepatocellular fatty change (rat liver [2]; 20 ppm, females): one
- Animals with high-grade (grade 3) centrilobular hepatocellular fatty change (rat liver [2]; 20 ppm, males): two of three
- BROD activity in lung microsomes (CYP 2B/3A; 5 ppm): 22.9 ± 11.0 pmol/min/mg protein
- BROD activity in lung microsomes (CYP 2B/3A; 10 ppm): 25.5 ± 19.8 pmol/min/mg protein
- BROD activity in lung microsomes (CYP 2B/3A; 20 ppm): 82.1 ± 76.8 pmol/min/mg protein
- Unscheduled DNA Synthesis (UDS) test result (rat hepatocytes): negative
- GSH concentration (NPSH assay), range (rat liver [3]; NVP-exposed male rats, 5-20 ppm): 3.72–5.23 µmol/g liver
- NPSH, individual animal (rat liver [3]; 5 ppm NVP inhalation, animals 7-12): 5,13 µmol/g liver and 4,59 µmol/g liver and 4,10 µmol/g liver and 4,86 µmol/g liver and 3,99 µmol/g liver
- NPSH, group (mean ± SD) (rat liver [3]; 5 ppm NVP inhalation): 4.42 ± 0.52 µmol/g liver
- NPSH, individual animal (rat liver [3]; 10 ppm NVP inhalation, animals 13-18): 4.11 µmol/g liver and 4.72 µmol/g liver and 4.83 µmol/g liver and 4.57 µmol/g liver and 3.76 µmol/g liver
- NPSH, group (mean ± SD) (rat liver [3]; 10 ppm NVP inhalation): 4.23 ± 0.58 µmol/g liver
- NPSH, individual animal (rat liver [3]; 20 ppm NVP inhalation, animals 19-24): 4.47 µmol/g liver and 5.23 µmol/g liver and 3.72 µmol/g liver and 3.88 µmol/g liver and 4.67 µmol/g liver and 4.64 µmol/g liver
- NPSH, group (mean ± SD) (rat liver [3]; 20 ppm NVP inhalation): 4.44 ± 0.55 µmol/g liver
- Chromosome aberration test result [4]: negative
